In patent US20260132132A1, “3A,4,5,6-TETRAHYDRO-1 H-PYRAZOLO[3,4-C]PYRIDIN-7(7AH)-ONE DERIVATIVES AS FACTOR XIIA INHIBITORS” (KALVISTA PHARMACEUTICALS LIMITED, priority 2022, published 2026):

Legend:
[1] = biological target: T1, Human Factor XIIa (hFXIIa) (Homo sapiens, UniProt P00748); assay: Determination of Human Factor XIIa (hFXIIa) inhibition, fluorogenic substrate IC50 assay; format: biochemical; settings: fluorogenic substrate H-DPro-Phe-Arg-AFC at Km, 25° C., read-out: Human FXIIa IC50
T1 construct: purchased Enzyme Research Laboratories
T1 sequence (P00748 373-615 limits assumed): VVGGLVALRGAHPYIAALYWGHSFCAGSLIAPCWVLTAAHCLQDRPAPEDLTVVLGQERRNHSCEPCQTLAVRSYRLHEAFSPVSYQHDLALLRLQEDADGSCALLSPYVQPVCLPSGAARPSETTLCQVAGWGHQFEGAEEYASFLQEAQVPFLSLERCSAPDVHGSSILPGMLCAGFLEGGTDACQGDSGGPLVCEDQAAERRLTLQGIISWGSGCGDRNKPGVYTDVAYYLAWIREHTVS
T1 sequence (P00748 20-372 partner limits assumed): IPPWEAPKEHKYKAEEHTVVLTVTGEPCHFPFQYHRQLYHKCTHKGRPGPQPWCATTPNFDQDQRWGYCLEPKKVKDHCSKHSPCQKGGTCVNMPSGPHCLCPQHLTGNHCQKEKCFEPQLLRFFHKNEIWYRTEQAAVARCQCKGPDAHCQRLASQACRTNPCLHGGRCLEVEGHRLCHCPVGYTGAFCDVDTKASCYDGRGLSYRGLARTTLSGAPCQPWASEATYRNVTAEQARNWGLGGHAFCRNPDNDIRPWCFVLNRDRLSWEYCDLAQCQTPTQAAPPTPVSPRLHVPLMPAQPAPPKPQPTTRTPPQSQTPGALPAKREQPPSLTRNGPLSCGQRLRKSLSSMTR
Protocol: Determination of Human Factor XIIa (hFXIIa) inhibition
The Km for the cleavage of the substrate by hFXIIa was determined by standard transformation of the Michaelis-Menten equation, with subsequent inhibition assays performed at substrate Km concentration.

FXa = FXa (Homo sapiens, UniProt P00742); assay: Related protease inhibition: FXa, fluorogenic substrate; format: biochemical; settings: fluorogenic substrate at Km, 25° C., H1-H3 = % activity at 40 μM; for activity at 40 µM: read-out: IC50 (human FXa) nM
Protocol: (§1) Human serine protease enzyme Plasma Kallikrein, KLK1, FXa, Plasmin, Thrombin and Trypsin were assayed for enzymatic activity using an appropriate fluorogenic substrate at Km concentration, FXIa at fixed substrate concentration of 100 μM and various concentrations of the test compound.

Thrombin = Thrombin (Homo sapiens, UniProt P00734); assay: Related protease inhibition: Thrombin, fluorogenic substrate; format: biochemical; settings: fluorogenic substrate at Km, 25° C.; H1-H3 = % activity at 40 μM; read-out: IC50 (human thrombin) nM
Protocol: as §1

[2] = Pharmacokinetics following a single intravenous dose and a single oral dose in rats; format: in vivo; settings: rat, male Sprague-Dawley rats, single iv dose (nominal 1 mg/kg) and single oral dose (nominal 5 mg/kg) in 10% DMSO/10% Cremophor EL/80% SWFI, plasma by LCMS, Phoenix WinNonlin; for bioavailability: read-out: F % (oral bioavailability); for half-life: route for T½ not stated
Protocol: Pharmacokinetic studies of the compounds in Table 10 were performed to assess the pharmacokinetics following a single intravenous dose and a single oral dose in male Sprague-Dawley rats. Two rats were given a single intravenous dose of 1 ml/kg of a nominal 1 mg/ml (1 mg/kg) composition of test compound in 10% DMSO/10% Cremophor EL/80% SWFI vehicle. Two rats were given a single oral dose of 5 mL/kg of a nominal 1 mg/ml (5 mg/kg) composition of test compound in 10% DMSO/10% Cremophor EL/80% SWFI vehicle.
Following intravenous dosing, blood samples were collected over a period of 12 h. Sample times were 2, 5, 15 and 30 min then 1, 2, 4, 6, and 12 h. Following oral dosing, blood samples were collected over a period of 24 h. Sample times were 5, 15 and 30 min then 1, 2, 4, 6, 8, 12 and 24 h.
Following collection, blood samples were centrifuged and the plasma fraction analysed for concentration of test compound by LCMS. Oral bioavailability and half-life calculations from these studies were obtained using Phoenix WinNonlin (v8.0) and are shown below: […]

[3] = test system: patients with type I/II hereditary angioedema (HAE); settings: phase 3 study; monthly prophylactic subcutaneous treatment; cited from earlier work

FXa, sequence (P00742 235-488 limits assumed): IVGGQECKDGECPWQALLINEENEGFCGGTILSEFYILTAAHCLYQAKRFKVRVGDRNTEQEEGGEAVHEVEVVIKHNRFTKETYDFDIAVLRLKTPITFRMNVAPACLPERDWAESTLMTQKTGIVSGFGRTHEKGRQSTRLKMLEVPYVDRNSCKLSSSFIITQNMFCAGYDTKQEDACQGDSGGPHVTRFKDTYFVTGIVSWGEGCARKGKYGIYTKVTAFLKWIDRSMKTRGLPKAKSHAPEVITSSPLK
FXa, sequence (P00742 41-179 partner limits assumed): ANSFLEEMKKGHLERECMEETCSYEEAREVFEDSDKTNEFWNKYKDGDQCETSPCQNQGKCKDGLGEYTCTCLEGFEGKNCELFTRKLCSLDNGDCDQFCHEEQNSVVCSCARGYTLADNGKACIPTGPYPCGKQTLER

Row | IC50 [1] | activity at 40 µM (FXa) | activity at 40 µM (Thrombin) | bioavailability [2] | half-life [2] | IC50 (FXa) | Molecule | attacks in patients with type I/II hereditary angioedema (HAE) [3]
1 | 10 to 100 nM | < 20% | > 80% | 28% | 1.42 h | – | CN1CCOc2ccc(N3CCc4c(C(=O)N[C@@H](CO)C5CC5)nn(-c5cccc(Cl)c5F)c4C3=O)cc2C1=O [Example 2049, (R)-1-(3-chloro-2-fluorophenyl)-N-(1-cyclopropyl-2-hydroxyethyl)-6-(4-methyl-5-oxo-2,3,4,5-tetrahydrobenzo[f][1,4]oxazepin-7-yl)-7-oxo-4,5,6,7-tetrahydro-1H-pyrazolo[3,4-c]pyridine-3-carboxamide] | –
2 | – | – | – | – | – | – | Garadacimab: "a monoclonal antibody inhibitory against FXIIa" | reduce attacks
3 | 10 to 100 nM | 20 to 80% | > 80% | 57% | 0.817 h | – | CN1CCOc2ccc(N3CCc4c(C(=O)N[C@@H]5CCOC5)nn(-c5cccc(Cl)c5F)c4C3=O)cc2C1=O [Example 2048, (R)-1-(3-chloro-2-fluorophenyl)-6-(4-methyl-5-oxo-2,3,4,5-tetrahydrobenzo[f][1,4]oxazepin-7-yl)-7-oxo-N-(tetrahydrofuran-3-yl)-4,5,6,7-tetrahydro-1H-pyrazolo[3,4-c]pyridine-3-carboxamide] | –
4 | 10 to 100 nM | – | – | 55% | 4.62 h | > 40000 nM | O=C(NCC1CC1)c1nn(-c2cccc(Cl)c2)c2c1CCN(c1ccc3c(c1)CN(CCO)CC3)C2=O [Example 1055, 1-(3-Chlorophenyl)-N-(cyclopropylmethyl)-6-(2-(2-hydroxyethyl)-1,2,3,4-tetrahydroisoquinolin-7-yl)-7] | –
5 | 100 to 300 nM | – | – | 27% | 0.75 h | > 40000 nM | CN1CCc2ccc(N3CCc4c(C(=O)N[C@@H]5CCOC5)nn(-c5cccc(Cl)c5F)c4C3=O)cc2C1=O [Example 2039, (R)-1-(3-chloro-2-fluorophenyl)-6-(2-methyl-1-oxo-1,2,3,4-tetrahydroisoquinolin-7-yl)-7-oxo-N-(tetrahydrofuran-3-yl)-4,5,6,7-tetrahydro-1H-pyrazolo[3,4-c]pyridine-3-carboxamide] | –
6 | 100 to 300 nM | – | – | 36% | 5.47 h | 1000 to 3000 nM | CN1CCc2ccc(N3CCc4c(C(=O)N[C@H](CO)c5ccccc5)nn(-c5cccc(Cl)c5)c4C3=O)cc2C1 [Example 1024, (S)-1-(3-Chlorophenyl)-N-(2-hydroxy-1-phenylethyl)-6-(2-methyl-1,2,3,4-tetrahydroisoquinolin-7-yl)-7-oxo-4,5,6,7-tetrahydro-1H-pyrazolo[3,4-c]pyridine-3-carboxamide] | –
